Reference: patent US10160747B2, “Compounds and methods for kinase modulation, and indications therefor” (Plexxikon Inc., priority 2016, dated 2018)

How the values were obtained:
FLT3-D835Y = biological target: T1, FLT3-D835Y (Homo sapiens, UniProt P36888, D835Y); assay: FLT3-D835Y recombinant enzyme kinase assay (AlphaScreen); assay type: biochemical; settings: 8 pt, GMean
T1 construct: purchased Invitrogen PV3967
T1 sequence (P36888 27-993 D835Y): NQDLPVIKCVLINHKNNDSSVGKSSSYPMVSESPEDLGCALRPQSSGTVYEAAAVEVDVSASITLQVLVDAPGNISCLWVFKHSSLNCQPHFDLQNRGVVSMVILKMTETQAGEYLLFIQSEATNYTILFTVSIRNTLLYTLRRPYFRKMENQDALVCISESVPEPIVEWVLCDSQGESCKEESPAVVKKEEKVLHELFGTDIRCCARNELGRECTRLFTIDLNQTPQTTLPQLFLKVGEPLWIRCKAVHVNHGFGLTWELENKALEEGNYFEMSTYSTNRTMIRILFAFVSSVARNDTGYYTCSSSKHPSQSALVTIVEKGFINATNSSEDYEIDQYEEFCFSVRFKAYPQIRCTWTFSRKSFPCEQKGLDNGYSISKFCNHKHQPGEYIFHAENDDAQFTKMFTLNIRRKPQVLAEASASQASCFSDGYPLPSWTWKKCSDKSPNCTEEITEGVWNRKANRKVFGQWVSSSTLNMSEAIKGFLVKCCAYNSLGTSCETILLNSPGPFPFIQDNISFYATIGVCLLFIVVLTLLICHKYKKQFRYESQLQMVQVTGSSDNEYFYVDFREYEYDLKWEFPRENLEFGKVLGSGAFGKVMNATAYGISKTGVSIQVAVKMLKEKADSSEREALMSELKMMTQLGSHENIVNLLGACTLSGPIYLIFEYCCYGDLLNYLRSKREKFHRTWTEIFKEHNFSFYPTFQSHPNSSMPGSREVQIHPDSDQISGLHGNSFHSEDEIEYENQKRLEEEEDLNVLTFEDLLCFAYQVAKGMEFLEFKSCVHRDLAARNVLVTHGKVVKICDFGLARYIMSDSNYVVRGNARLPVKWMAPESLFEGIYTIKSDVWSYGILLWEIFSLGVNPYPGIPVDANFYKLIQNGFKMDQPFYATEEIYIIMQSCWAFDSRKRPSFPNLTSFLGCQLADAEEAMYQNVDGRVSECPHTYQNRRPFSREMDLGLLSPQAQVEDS
How it was run: (§1)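 AlphaScreen proximity signal at 580 nm, from PY20 acceptor and streptavidin donor beads, measures tyrosine phosphorylation of 30 nM biotin-poly(Glu4-Tyr) peptide by recombinant kinase. ATP: 10 μM (FLT3 mutants), 100 μM (c-KIT). IC50 from loss of signal.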

FLT3-ITD = biological target: T2, FLT3-ITD (Homo sapiens, UniProt P36888); assay: FLT3-ITD recombinant enzyme kinase assay (AlphaScreen); assay type: biochemical; settings: 8 pt; read-out: FLT3_ITD 8 pt: IC50
T2 sequence (P36888 1-993): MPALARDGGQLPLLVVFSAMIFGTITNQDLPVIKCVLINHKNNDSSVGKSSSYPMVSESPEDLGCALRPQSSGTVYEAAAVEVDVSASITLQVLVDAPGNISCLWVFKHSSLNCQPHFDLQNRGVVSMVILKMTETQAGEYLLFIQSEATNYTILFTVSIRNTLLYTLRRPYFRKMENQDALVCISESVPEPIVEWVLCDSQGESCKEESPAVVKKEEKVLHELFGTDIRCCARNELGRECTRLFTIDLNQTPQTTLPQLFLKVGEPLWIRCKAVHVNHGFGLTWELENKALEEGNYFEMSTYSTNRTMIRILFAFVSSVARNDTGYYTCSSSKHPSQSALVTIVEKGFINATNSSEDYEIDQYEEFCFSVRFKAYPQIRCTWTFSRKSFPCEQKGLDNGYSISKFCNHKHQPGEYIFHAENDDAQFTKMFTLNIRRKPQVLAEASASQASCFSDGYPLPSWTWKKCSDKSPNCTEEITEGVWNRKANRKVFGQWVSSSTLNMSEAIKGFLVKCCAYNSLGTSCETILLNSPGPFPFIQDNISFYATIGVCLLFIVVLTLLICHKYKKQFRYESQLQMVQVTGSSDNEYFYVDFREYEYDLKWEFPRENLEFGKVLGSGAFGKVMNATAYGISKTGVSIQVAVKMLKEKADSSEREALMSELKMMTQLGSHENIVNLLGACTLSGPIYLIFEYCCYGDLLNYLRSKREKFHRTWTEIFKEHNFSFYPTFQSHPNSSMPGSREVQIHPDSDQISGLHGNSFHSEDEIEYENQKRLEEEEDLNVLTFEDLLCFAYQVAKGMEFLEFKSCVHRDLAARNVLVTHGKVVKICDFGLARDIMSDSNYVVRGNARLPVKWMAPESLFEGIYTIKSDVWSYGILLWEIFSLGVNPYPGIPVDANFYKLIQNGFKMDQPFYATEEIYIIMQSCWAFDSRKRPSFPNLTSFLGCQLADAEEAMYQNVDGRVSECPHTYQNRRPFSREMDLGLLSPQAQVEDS
How it was run: as §1

| Structure (SMILES) | IC50 (FLT3-D835Y) [µM] | IC50 (FLT3-ITD) [µM] |
| --- | --- | --- |
| Cc1ncc(NC(=O)Cc2ccc(-c3cnc(Nc4cn[nH]c4)nc3)cc2F)cc1C(F)(F)F [Compound P-0027, 2-[2-fluoro-4-[2-(1H-pyrazol-4-ylamino)pyrimidin-5-yl]phenyl]-N-[6-methyl-5-(trifluoromethyl)-3-pyridyl]acetamide] | 0.0001 to 10 | 0.0001 to 10 |
| Cc1ncc(NC(=O)Cc2ccc(-c3cnc4c(c3)C3(CC3)C(=O)N4)cc2F)cc1C(F)(F)F [Compound P-0057, 2-[2-fluoro-4-(2-oxospiro[1H-pyrrolo[2,3-b]pyridine-3,1′-cyclopropane]-5-yl)phenyl]-N-[6-methyl-5-(trifluoromethyl)-3-pyridyl]acetamide] | 0.0001 to 10 | 0.0001 to 10 |
| Cc1ncc(NC(=O)Cc2ccc(-c3cnc(Nc4cnn(C)c4C)nc3)cc2F)cc1C(F)(F)F [Compound P-0076, 2-[4-[2-[(1,5-dimethylpyrazol-4-yl)amino]pyrimidin-5-yl]-2-fluoro-phenyl]-N-[6-methyl-5-(trifluoromethyl)-3-pyridyl]acetamide] | 0.0001 to 10 | 0.0001 to 10 |
| COc1ncc(NC(=O)Cc2ccc(-c3cnc(Nc4cn[nH]c4)nc3)cc2F)cc1C(F)(F)F [Compound P-0026, 2-[2-fluoro-4-[2-(1H-pyrazol-4-ylamino)pyrimidin-5-yl]phenyl]-N-[6-methoxy-5-(trifluoromethyl)-3-pyridyl]acetamide] | 0.0001 to 10 | 0.0001 to 10 |
| COc1ncc(NC(=O)Cc2ccc(-c3cnc(Nc4cnn5ccccc45)nc3)cc2F)cc1C(F)(F)F [Compound P-0037, 2-[2-fluoro-4-[2-(pyrazolo[1,5-a]pyridin-3-ylamino)pyrimidin-5-yl]phenyl]-N-[6-methoxy-5-(trifluoromethyl)-3-pyridyl]acetamide] | 0.0001 to 10 | 0.0001 to 10 |
| O=C(Cc1ccc(-c2cnc3[nH]cc(Cl)c3n2)cc1F)Nc1cncc(C(F)(F)F)c1 [Compound P-0061, 2-[4-(7-chloro-5H-pyrrolo[2,3-b]pyrazin-2-yl)-2-fluoro-phenyl]-N-[5-(trifluoromethyl)-3-pyridyl]acetamide] | 0.0001 to 10 | 0.0001 to 10 |
| O=C(Cc1ccc(-c2cnc3[nH]cc(F)c3c2)cc1F)Nc1cncc(C(F)(F)F)c1 [Compound P-0053, 2-[2-fluoro-4-(3-fluoro-1H-pyrrolo[2,3-b]pyridin-5-yl)phenyl]-N-[5-(trifluoromethyl)-3-pyridyl]acetamide] | 0.0001 to 10 | 0.0001 to 10 |
| Cn1cnc(Nc2ncc(-c3ccc(CC(=O)Nc4cncc(C(F)(F)F)c4)c(F)c3)cn2)c1 [Compound P-0052, 2-[2-fluoro-4-[2-[(1-methylimidazol-4-yl)amino]pyrimidin-5-yl]phenyl]-N-[5-(trifluoromethyl)-3-pyridyl]acetamide] | 0.0001 to 10 | 0.0001 to 10 |
| Cc1ncc(NC(=O)Cc2ccc(-c3cnc4[nH]cc(F)c4c3)cc2F)cc1C(F)(F)F [Compound P-0062, 2-[2-fluoro-4-(3-fluoro-1H-pyrrolo[2,3-b]pyridin-5-yl)phenyl]-N-[6-methyl-5-(trifluoromethyl)-3-pyridyl]acetamide] | 0.0001 to 10 | 0.0001 to 10 |
| COc1ncc(NC(=O)Cc2ccc(-c3cnc4[nH]cc(Cl)c4n3)cc2F)cc1C(F)(F)F [Compound P-0047, 2-[4-(7-chloro-5H-pyrrolo[2,3-b]pyrazin-2-yl)-2-fluoro-phenyl]-N-[6-methoxy-5-(trifluoromethyl)-3-pyridyl]acetamide] | 0.0001 to 10 | 0.0001 to 10 |
| COc1ncc(NC(=O)Cc2ccc(-c3cnc4[nH]cc(C(=O)C5CC5)c4c3)cc2F)cc1C(F)(F)F [Compound P-0036, 2-[4-[3-(cyclopropanecarbonyl)-1H-pyrrolo[2,3-b]pyridin-5-yl]-2-fluoro-phenyl]-N-[6-methoxy-5-(trifluoromethyl)-3-pyridyl]acetamide] | 0.0001 to 10 | 0.0001 to 10 |
| O=C(Cc1ccc(-c2cnc(Nc3cnn4ccccc34)nc2)cc1F)Nc1ccnc(C(F)(F)F)c1 [Compound P-0033, 2-[2-fluoro-4-[2-(pyrazolo[1,5-a]pyridin-3-ylamino)pyrimidin-5-yl]phenyl]-N-[2-(trifluoromethyl)-4-pyridyl]acetamide] | 0.0001 to 10 | 0.0001 to 10 |
| O=C(Cc1ccc(-c2cnc(Nc3cnn(C(F)F)c3)nc2)c(F)c1)Nc1cc(C(F)(F)F)ccn1 [Compound P-0024, 2-[4-[2-[[1-(difluoromethyl)pyrazol-4-yl]amino]pyrimidin-5-yl]-3-fluoro-phenyl]-N-[4-(trifluoromethyl)-2-pyridyl]acetamide] | 0.0001 to 10 | 0.0001 to 10 |
| COc1ncc(NC(=O)Cc2ccc(-c3cnc4[nH]cc(C(C)=O)c4c3)cc2F)cc1C(F)(F)F [Compound P-0035, 2-[4-(3-acetyl-1H-pyrrolo[2,3-b]pyridin-5-yl)-2-fluoro-phenyl]-N-[6-methoxy-5-(trifluoromethyl)-3-pyridyl]acetamide] | 0.0001 to 10 | 0.0001 to 10 |
| CC(=O)c1c[nH]c2ncc(-c3ccc(CC(=O)Nc4cnc(C)c(C(F)(F)F)c4)c(F)c3)cc12 [Compound P-0063, 2-[4-(3-acetyl-1H-pyrrolo[2,3-b]pyridin-5-yl)-2-fluoro-phenyl]-N-[6-methyl-5-(trifluoromethyl)-3-pyridyl]acetamide] | 0.0001 to 10 | 0.0001 to 10 |
| Cc1ncc(NC(=O)Cc2ccc(-c3cnc4[nH]c(Cl)cc4c3)cc2F)cc1C(F)(F)F [Compound P-0067, 2-[4-(2-chloro-1H-pyrrolo[2,3-b]pyridin-5-yl)-2-fluoro-phenyl]-N-[6-methyl-5-(trifluoromethyl)-3-pyridyl]acetamide] | 0.0001 to 10 | 0.0001 to 10 |
| CC(=O)c1c[nH]c2ncc(-c3ccc(CC(=O)Nc4ccnc(C(F)(F)F)c4)c(F)c3)cc12 [Compound P-0031, 2-(4-(3-acetyl-1H-pyrrolo[2,3-b]pyridin-5-yl)-2-fluorophenyl)-N-(2-(trifluoromethyl)pyridin-4-yl)acetamide] | 0.0001 to 10 | 0.0001 to 10 |
| O=C(Cc1ccc(-c2cnc(Nc3cnn4ccccc34)nc2)c(F)c1)Nc1cncc(C(F)(F)F)c1 [Compound P-0071, 2-[3-fluoro-4-[2-(pyrazolo[1,5-a]pyridin-3-ylamino)pyrimidin-5-yl]phenyl]-N-[5-(trifluoromethyl)-3-pyridyl]acetamide] | 0.0001 to 10 | 0.0001 to 10 |
